Source: ChEMBL document CHEMBL4699637, “Glycosylated Phenols and an Unprecedented Diacid from the Saudi Plant Cissus rotundifolia” (J Nat Prod, 2020)
The source made the active and inactive calls. No cut-off for these calls is given here.

How the values were obtained:
Huh-7 = experiment: Activation of glucose transporter in human Huh-7 cells assessed as increase in glucose uptake at 800 ug/ml preincubated for 30 mins followed by […] addition and measured after 45 mins by fluorescence assay; type: cell-based; details: dose 800.0 µg/ml, time 75.0 min
[1] = Activation of glucose transporter in human Huh-7 cells assessed as increase in glucose uptake preincubated for 30 mins followed by 2-NDBG addition and measured after 45 mins by fluorescence assay

Row | Compound | Activity (Huh-7) | EC50 [1] [µM] | fold change (FC) (Huh-7; filed as activator)
1 | CC(/C=C/C(=O)O)=C\C=C\C[C@H](O[C@@H]1O[C@H](CO)[C@@H](O)[C@H](O)[C@H]1O)[C@H](C)CC(=O)O | inactive |  | 
2 | O=c1cc(-c2ccc(O)cc2)oc2cc(O)c([C@@H]3O[C@H](CO)[C@@H](O)[C@H](O)[C@H]3O[C@@H]3O[C@H](CO)[C@@H](O)[C@H](O)[C@H]3O)c(O)c12 | inactive |  | 
3 | O=c1cc(-c2ccc(O)cc2)oc2c([C@@H]3O[C@H](CO)[C@@H](O)[C@H](O)[C@H]3O[C@@H]3O[C@H](CO)[C@@H](O)[C@@H]3O)c(O)cc(O)c12 | inactive |  | 
4 | O=C(O)/C=C\c1ccc(O[C@@H]2O[C@H](CO)[C@@H](O)[C@H](O)[C@H]2O)cc1 | inactive |  | 
5 | O=C(/C=C/c1ccc(O)cc1)O[C@@H]1O[C@H](CO)[C@@H](O)[C@H](O)[C@H]1O |  | 7.7 | 2
6 | O=C1OC[C@H]2O[C@@](CO)(O[C@H]3O[C@H](COC(=O)[C@H]4[C@H]1[C@@H](c1ccc(O)cc1)[C@@H]4c1ccc(O)cc1)[C@@H](O)[C@H](O)[C@H]3O)[C@@H](O)[C@@H]2O | inactive |  | 
7 | O=c1cc(-c2ccc(O)c(O)c2)oc2c([C@@H]3O[C@H](CO)[C@@H](O)[C@H](O)[C@H]3O[C@@H]3O[C@H](CO)[C@@H](O)[C@@H]3O)c(O)cc(O)c12 | inactive |  | 
